Measurements taken from patent US20090325857A1, “USE OF OPIOID RECEPTOR ANTAGONISTS” (priority 2006, published 2009).

Assays:
Type in all cases: cell-based, human
[1] = system: hair follicle melanocytes (HFM); assay: Melanin content in hair follicle melanocytes (HFM); details: 4 days incubation, baseline = 100%
Excerpt: Particularly, the activity of an agent in blocking an opioid receptor can be further determined by measuring the efficacy of the agent to cause a substantial increase of the total intracellular melanin production in human primary follicular melanocytes.
The effect of opioid antagonists on melanin production in hair follicular melanocytes can be measured in a cell-based in vitro assay.
Melanocytes are isolated and cultured from hair follicles derived from a normal adult scalp biopsy. Follicular melanocytes are passaged in T25 plastic culture flasks to maximum 4th to maximize in vivo-like behavior. Cells are seeded into flasks and after 2 days are incubated with test substances added to the cell growth medium. The experimental set-up includes flasks in which the cells are either not treated (control) or incubated for 4 days with the appropriate amount of opioid antagonists, to assess the effect on melanin production.
After 4 days incubation, control and treated cells are collected and melanin is extracted from lysed cells. Melanin is quantified by measuring the spectrophotometric OD at 475 nm and calculating against a standardized curve. The resulting value is standardized against the number of cells counted per treatment and is given as micrograms of melanin per million cells.
(§1) Melanocytes are isolated and cultured either from hair follicles or epidermal skin derived from a normal adult scalp biopsy. Follicular and epidermal melanocytes are passaged in T25 plastic culture flasks to maximum 4th to maximize in vivo-like behavior. Cells are seeded into flasks and after 2 days are incubated with test substances added to the cell growth medium. The experimental set-up includes flasks in which the cells are either not treated (control) or incubated for 4 days with the appropriate amount of opioid antagonists, to assess the effect on melanin production.
(§2) After 4 days incubation, control and treated cells are collected and melanin is extracted from lysed cells. Melanin is quantified by measuring the spectrophotometric OD at 475 nm and calculating against a standardized curve. The resulting value is standardized against the number of cells counted per treatment and is given as micrograms of melanin per million cells. As control known melanin production inducing references IBMX and full medium are used.

[2] = system: hair follicle melanocytes; assay: Proliferation of hair follicle melanocytes (direct cell counting, hemocytometry); details: hair follicle cells, baseline = 100%
Method: as §1
(§3) Furthermore, the hair follicle cells were analysed for their proliferation and dentricity. Proliferation has been assessed by direct cell counting using hemocytometry. Cell dendricity has been assessed by phase contrast microscopy with representative photo documentation. It can be seen that the opioate receptor antagonists also have an effect on the proliferation and dentricity further supporting the use of the opiate receptor antagonists for the prevention of the graying of hair and/or for restoration and/or maintenance of the natural hair color

[3] = system: hair follicle melanocytes; assay: Dendricity of hair follicle melanocytes (phase contrast microscopy); details: hair follicle cells, baseline = 100%
Method: as §1, §3

[4] = system: epidermal melanocytes (EM); assay: Melanin content in epidermal melanocytes (EM); details: 4 days incubation, baseline = 100%
Method: as §1, §2

Compound: CC(C)Cn1c(=O)n(C)c(=O)c2[nH]cnc21 [IBMX]
- Melanin content in HFM ([1]; concentration not given): 140%
- Proliferation of melanocytes ([2]; concentration not given): 140%
- Dentricity ([3]; concentration not given): 148%

Compound: C=CCN1CC[C@]23c4c5ccc(O)c4O[C@H]2/C(=N/N=C2\CC[C@@]4(O)[C@H]6Cc7ccc(O)c8c7[C@@]4(CCN6CC=C)[C@H]2O8)CC[C@@]3(O)[C@H]1C5 [Naloxonazine]
- Melanin content in HFM ([1]; 1 μM): 120%
- Melanin content in HFM ([1]; 100 μM): 242%
- Melanin content in EM ([4]; 1 μM): 40%
- Melanin content in EM ([4]; 100 μM): 25%
- Proliferation of melanocytes ([2]; 1 μM): 109%
- Dentricity ([3]; 1 μM): 105%

Compound: C=CCN1CC[C@]23c4c5ccc(O)c4O[C@H]2C(=O)CC[C@@]3(O)[C@H]1C5 [Naloxone]
- Melanin content in EM ([4]; 1 μM): 61%
- Melanin content in EM ([4]; 100 μM): 54%
- Proliferation of melanocytes ([2]; 1 μM): 123%
- Dentricity ([3]; 1 μM): 110%
- Dentricity ([3]; 100 μM): 104%

Compound: beta endorphin (YGGFMTSEKSQTPLVTLFKNAIIKNAYKKGE; Beta-endorphin; UniProt P01189 237-267, looked up) [μ-opiate agonist]
- Melanin content in HFM ([1]; concentration not given): 92%
